Results reported in patent US8143265B2, “Method of treating atherosclerosis” (Meharry Medical College, priority 2007, dated 2012).

Assays:
[1] = test system: ApoE−/− mice; test: Atherosclerosis development in ApoE−/− mice with oral feeding of 2-AP; assay type: in vivo, mouse
Procedure: FIG. 1. ApoE^−/− mice at 5 weeks of age were treated with 200 mg/kg BW of 2-AP or equal volume of water as control via gavage feeding. This procedure was repeated once every other day for […]. A. Heart-aorta samples were collected from mice at 6 months of age (n=12 for each group of mice). Sequential 8-μm thick sections were cut from the mouse aortic root. The area (μm^2) of atherosclerotic lesions in the section was measured. B. Aortas from the aortic root to the iliac bifurcation were collected, and the area of atherosclerotic lesions and the total area of the aortic surface were measured, data are expressed as the percent of aortic surface area covered by atherosclerotic lesions. Data are expressed as the mean±SEM. *P<0.05 as compared to untreated control mice. 1. Inhibition of eIF-2α phosphorylation by 2-AP delays the development of atherosclerosis in ApoE^−/− mice: We find that oral feeding of 2-AP reduces the mean size of atherosclerotic lesions in the aorta root and the aorta tree by about 45% and 37%, respectively. […] These findings provide evidence that development of atherosclerosis in ApoE^−/− mice is associated with an increased eIF-2α phosphorylation and that inhibition of eIF-2α phosphorylation via in vivo treatment with 2-AP delays the development of atherosclerosis.

[2] = test system: mouse peritoneal macrophages; test: E−/B48 lipoprotein-induced foam cell formation, confocal microscopy of DiI and LysoTracker staining; assay type: cell-based; conditions: MPMs, 20 μg/ml DiI-labeled E−/B48 lipoproteins plus 2 mM 2-AP, 48 hrs
Procedure: FIG. 2. Mouse peritoneal macrophages were treated with 20 μg/ml DiI-labeled E^−/B48 lipoproteins, 20 μg/ml E^−/B48 lipoproteins plus 2 mM 2-AP, or culture medium alone (control) for 48 hrs. The cells were then stained with LysoTracker, which is used to localize lysosomes. Confocal microscopy images were captured, and the merged images are an overlay of the differential interference contrast (DIC) images and the fluorescence images of intracellular DiI and LysoTracker staining. Co-localization of DiI and LysoTracker staining indicates lipoprotein accumulation in the lysosomes. 2. Inhibition of eIF-2α phosphorylation by 2-AP represses E^−/B48 lipoprotein-induced foam cell formation in vitro. We previously reported that incubation of mouse peritonea macrophages (MPMs) with E^−/B48 lipoproteins induces lipid droplet accumulation in the cytoplasm. In some cells, E^−/B48 lipoproteins caused the cytoplasm to be almost entirely accumulated lipids, giving these cells a foam cell like appearance^12. In the present study, we used a confocal microscopy to localize the accumulated lipids in MPMs and to assess the effect of 2-AP on this localization.

[3] = test system: eIF-2α phosphorylation; test: E−/B48 lipoprotein-induced eIF2α phosphorylation in MPMs; assay type: cell-based, mouse; conditions: addition to culture medium or transfection, data not shown
Source text: 3. ApoE-deficient lipoproteins induce eIF-2α phosphorylation. […] We also observed that addition of 2-AP to culture medium or transfection of a nonphosphorylatable eIF2α mutant to MPMs attenuated E^−/B48 lipoprotein-induced eIF2α phosphorylation (not shown).

[4] = test system: mouse peritoneal macrophages; test: E−/B48 lipoprotein degradation and lipoprotein and cholesterol ester accumulation in MPMs; assay type: cell-based; conditions: addition to culture medium or transfection, data not shown
Source text: 4. Inhibition of eIF-2α phosphorylation increases macrophage lipoprotein degradation, and suppresses cholesterol ester and lipoprotein accumulation in macrophages. We observed that E^−/B48 lipoproteins induced a time-related accumulation of cholesterol ester and lipoproteins in MPMs, which is associated with a reduced degradation rate of E^−/B48 lipoproteins. The addition of 2-AP to culture medium or transfection of a nonphosphorylatable eIF-2α mutant to MPMs enhances E^−/B48 lipoprotein degradation, and reduces E^−/B48 lipoprotein and cholesterol ester accumulation (data not shown).

[5] = test system: lysosomal hydrolases, including cathepsin B and lysosomal acid lipase; test: E−/B48 lipoprotein-induced suppression of lysosomal hydrolases in MPMs; assay type: cell-based, mouse; conditions: data not shown
Source text: 5. Inhibition of eIF-2α phosphorylation attenuates E^−/B48 lipoprotein-induced suppressive effect on lysosomal hydrolases. […] We also observed that 2-AP and the nonphosphorylatable eIF-2α mutant attenuated the suppressive effect of E^−/B48 lipoproteins on lysosomal hydrolases (data not shown). It is highly likely that E^−/B48 lipoprotein-induced eIF-2α phosphorylation down-regulates macrophage lysosomal hydrolases, which in turn reduces the degradation of the lipid and protein components of E^−/B48 lipoproteins, leading to lipoprotein accumulation in the lysosomes and triggering foam cell formation.

[6] = test system: mRNA translation; test: E−/B48 lipoprotein-induced suppression of mRNA translation; assay type: cell-based; conditions: data not shown
Source text: 6. Inhibition of eIF-2α phosphorylation attenuates E^−/B48 lipoprotein-induced suppression on mRNA translation. We observed that E^−/B48 lipoproteins reduced lysosomal hydrolases, due mainly to suppressing the translation of mRNAs encoding these proteins, and that 2-AP attenuated the suppressive effect of E^−/B48 lipoproteins on mRNA translation (data not shown).

[7] = ApoE−/− mice, 200 mg/kg BW 2-AP by gavage once every other day for 24 weeks, vs untreated control
[8] = ApoE−/− mice, 200 mg/kg BW once every other day for 24 weeks, 6-hr fasting

food intake ([1]; 2-AP treatment of ApoE−/− mice): did not alter | suppressive effect of E−/B48 lipoproteins on lysosomal hydrolases [5]: attenuated
Structure (SMILES): Nc1ncc2[nH]cnc2n1 [2-AP, 7H-purin-2-amine]
body weight ([1]; 2-AP treatment of ApoE−/− mice): did not alter | advanced lesions (e.g., fibrous caps and acellular areas) ([1]; 2-AP-treated ApoE−/− mice): reduced markedly | reduction of mean size of atherosclerotic lesions in the aorta root [1, 7]: about 45% | reduction of mean size of atherosclerotic lesions in the aorta tree [1, 7]: ~37% | plasma glucose levels [1, 8]: did not alter | plasma insulin levels [1, 8]: did not alter | plasma lipid levels [1, 8]: did not alter | phosphorylated eIF-2α immunostaining in the atherosclerotic lesions ([1]; immunohistology, 2-AP-treated vs untreated ApoE−/− mice): significantly reduced | level of staining with DiI (intralysosomal lipid accumulation) [2]: markedly reduced | E−/B48 lipoprotein-induced eIF2α phosphorylation [3]: attenuated | E−/B48 lipoprotein accumulation [4]: reduces | E−/B48 lipoprotein degradation [4]: enhances | cholesterol ester accumulation [4]: reduces | suppressive effect of E−/B48 lipoproteins on mRNA translation [6]: attenuated
